Data: ChEMBL document CHEMBL4359901, “Cyclic enaminone as new chemotype for selective cyclooxygenase-2 inhibitory, anti-inflammatory, and analgesic activities” (Eur J Med Chem, 2019)

How the values were obtained:
[1] = molecular target: Prostaglandin G/H synthase 1 (Ovis aries) (UniProt P05979); test: Inhibition of ovine COX1 assessed as reduction in PGF2alpha at 10 uM incubated for 2 mins using arachidonic acid as substrate by ELISA relative to control
[2] = molecular target: Prostaglandin G/H synthase 2 (Homo sapiens) (UniProt P35354); test: Inhibition of recombinant human COX2 assessed as reduction in PGF2alpha at 10 uM incubated for 2 mins using arachidonic acid as substrate by ELISA relative to control
[3] = Antioxidant activity assessed as DPPH radical scavenging activity incubated for 20 mins by spectrophotometric method; format: functional
[4] = test system: Rattus norvegicus; test: Analgesic activity in Wistar albino rat assessed as reaction time at 12.5 mg/kg, ip measured after 60 mins for 15 secs by hot plate method (reference value: 4.67 +/- 0.52 sec); format: functional
[5] = test system: Rattus norvegicus; test: Antiinflammatory activity in Wistar albino rat assessed as reduction in carrageenan-induced paw volume at 12.5 mg/kg, ip measured after 2 hrs by plethysmometric method (reference value: 1.58 +/- 0.21 ml); format: functional
[6] = test system: Rattus norvegicus; test: Analgesic activity in Wistar albino rat assessed as reaction time at 25 mg/kg, ip measured after 120 mins for 15 secs by hot plate method (reference value: 4.32 +/- 0.52 sec); format: functional
[7] = test system: Rattus norvegicus; test: Analgesic activity in Wistar albino rat assessed as reaction time at 25 mg/kg, ip measured after 60 mins for 15 secs by hot plate method (reference value: 4.67 +/- 0.52 sec); format: functional
[8] = Antioxidant activity assessed as DPPH radical scavenging activity at 100 uM/ml incubated for 20 mins by spectrophotometric method relative to control; format: functional
[9] = Antioxidant activity assessed as DPPH radical scavenging activity at 60 uM/ml incubated for 20 mins by spectrophotometric method relative to control; format: functional
[10] = Selectivity index, ratio of IC50 for inhibition of ovine COX1 to IC50 for inhibition of recombinant human COX2
[11] = Antioxidant activity assessed as DPPH radical scavenging activity at 10 uM/ml incubated for 20 mins by spectrophotometric method relative to control; format: functional
[12] = test system: Rattus norvegicus; test: Analgesic activity in Wistar albino rat assessed as reaction time at 12.5 mg/kg, ip measured after 180 mins for 15 secs by hot plate method (reference value: 3.87 +/- 0.38 sec); format: functional
[13] = test system: Rattus norvegicus; test: Antiinflammatory activity in Wistar albino rat assessed as reduction in carrageenan-induced paw volume at 12.5 mg/kg, ip measured after 3 hrs by plethysmometric method (reference value: 1.75 +/- 0.33 ml); format: functional
[14] = test system: Rattus norvegicus; test: Analgesic activity in Wistar albino rat assessed as reaction time at 25 mg/kg, ip measured after 180 mins for 15 secs by hot plate method (reference value: 3.87 +/- 0.38 sec); format: functional
[15] = test system: Rattus norvegicus; test: Analgesic activity in Wistar albino rat assessed as reaction time at 12.5 mg/kg, ip measured after 120 mins for 15 secs by hot plate method (reference value: 4.32 +/- 0.52 sec); format: functional
[16] = test system: Rattus norvegicus; test: Antiinflammatory activity in Wistar albino rat assessed as reduction in carrageenan-induced paw edema at 25 mg/kg, ip measured after 1 hr by plethysmometric method (reference value: 1.43 +/- 0.19 ml); format: functional
[17] = Antioxidant activity assessed as DPPH radical scavenging activity at 20 uM/ml incubated for 20 mins by spectrophotometric method relative to control; format: functional
[18] = test system: Rattus norvegicus; test: Antiinflammatory activity in Wistar albino rat assessed as reduction in carrageenan-induced paw edema at 25 mg/kg, ip measured after 2 hrs by plethysmometric method (reference value: 1.58 +/- 0.21 ml); format: functional
[19] = test system: Rattus norvegicus; test: Analgesic activity in Wistar albino rat assessed as reaction time at 25 mg/kg, ip measured after 30 mins for 15 secs by hot plate method (reference value: 4.21 +/- 0.41 sec); format: functional
[20] = test system: Rattus norvegicus; test: Antiinflammatory activity in Wistar albino rat assessed as reduction in carrageenan-induced paw volume at 12.5 mg/kg, ip measured after 1 hr by plethysmometric method (reference value: 1.43 +/- 0.19 ml); format: functional
[21] = test system: Rattus norvegicus; test: Antiinflammatory activity in Wistar albino rat assessed as reduction in carrageenan-induced paw edema at 25 mg/kg, ip measured after 3 hrs by plethysmometric method (reference value: 1.75 +/- 0.33 ml); format: functional
[22] = Antioxidant activity assessed as DPPH radical scavenging activity at 40 uM/ml incubated for 20 mins by spectrophotometric method relative to control; format: functional
[23] = Antioxidant activity assessed as DPPH radical scavenging activity at 80 uM/ml incubated for 20 mins by spectrophotometric method relative to control; format: functional
[24] = test system: Rattus norvegicus; test: Analgesic activity in Wistar albino rat assessed as reaction time at 12.5 mg/kg, ip measured after 30 mins for 15 secs by hot plate method (reference value: 4.21 +/- 0.41 sec); format: functional
[25] = Ulcerogenicity in Sprague-Dawley rat assessed as formation of ulcer at 20 mg/kg, po after 1 hr by microscopic analysis; format: toxicity, organism-based; conditions: in vivo
[26] = test system: Rattus norvegicus; test: Antiinflammatory activity in Sprague-Dawley rat model of carrageenan-induced thermal hyperalgesia assessed as paw withdrawal latency pressure at 50 mg/kg, po administered 1 hr prior to carrageenan challenge and measured after 3 hrs by Randall-Selitto test (reference value: […] g); format: functional
[27] = test system: Rattus norvegicus; test: Antiinflammatory activity in Sprague-Dawley rat model of carrageenan-induced thermal hyperalgesia assessed as paw withdrawal latency time at 50 mg/kg, po administered 1 hr prior to carrageenan challenge and measured after 5 hrs by planter test (reference value: 7.5 +/- 0.74 sec); format: functional
[28] = test system: Rattus norvegicus; test: Antiinflammatory activity in Sprague-Dawley rat model of carrageenan-induced thermal hyperalgesia assessed as paw withdrawal latency pressure at 50 mg/kg, po administered 1 hr prior to carrageenan challenge and measured after 2 hrs by Randall-Selitto test (reference value: 231.13 +/- 3.15 g); format: functional
[29] = test system: Rattus norvegicus; test: Antiinflammatory activity in Sprague-Dawley rat model of carrageenan-induced thermal hyperalgesia assessed as paw withdrawal latency pressure at 50 mg/kg, po administered 1 hr prior to carrageenan challenge and measured after 3 hrs by Von-frey test (reference value: 146.61 +/- 1.58 g); format: functional
[30] = test system: Rattus norvegicus; test: Antiinflammatory activity in Sprague-Dawley rat model of carrageenan-induced thermal hyperalgesia assessed as paw withdrawal latency pressure at 50 mg/kg, po administered 1 hr prior to carrageenan challenge and measured after 1 hr by Von-frey test (reference value: 159.88 +/- 4.66 g); format: functional
[31] = test system: Rattus norvegicus; test: Antiinflammatory activity in Sprague-Dawley rat model of carrageenan-induced thermal hyperalgesia assessed as paw withdrawal latency time at 50 mg/kg, po administered 1 hr prior to carrageenan challenge and measured after 2 hrs by planter test (reference value: 6.17 +/- 0.58 sec); format: functional
[32] = test system: Rattus norvegicus; test: Antiinflammatory activity in Sprague-Dawley rat model of carrageenan-induced thermal hyperalgesia assessed as paw withdrawal latency time at 50 mg/kg, po administered 1 hr prior to carrageenan challenge and measured after 3 hrs by planter test (reference value: 4.13 +/- 0.45 sec); format: functional
[33] = test system: Rattus norvegicus; test: Antiinflammatory activity in Sprague-Dawley rat model of carrageenan-induced thermal hyperalgesia assessed as paw withdrawal latency time at 50 mg/kg, po administered 1 hr prior to carrageenan challenge and measured after 4 hrs by planter test (reference value: 5.47 +/- 0.84 sec); format: functional
[34] = test system: Rattus norvegicus; test: Antiinflammatory activity in Sprague-Dawley rat model of carrageenan-induced thermal hyperalgesia assessed as paw withdrawal latency pressure at 50 mg/kg, po administered 1 hr prior to carrageenan challenge and measured after 2 hrs by Von-frey test (reference value: 146.47 +/- 5.12 g); format: functional
[35] = test system: Rattus norvegicus; test: Antiinflammatory activity in Sprague-Dawley rat model of carrageenan-induced thermal hyperalgesia assessed as paw withdrawal latency pressure at 50 mg/kg, po administered 1 hr prior to carrageenan challenge and measured after 3 hrs by Von-frey test (reference value: 31.65 +/- 3.33 g); format: functional
[36] = test system: Rattus norvegicus; test: Antiinflammatory activity in Sprague-Dawley rat model of carrageenan-induced thermal hyperalgesia assessed as paw withdrawal latency pressure at 50 mg/kg, po administered 1 hr prior to carrageenan challenge and measured after 5 hrs by Von-frey test (reference value: 169.58 +/- 4.26 g); format: functional
[37] = test system: Rattus norvegicus; test: Antiinflammatory activity in Sprague-Dawley rat model of carrageenan-induced thermal hyperalgesia assessed as paw withdrawal latency pressure at 50 mg/kg, po administered 1 hr prior to carrageenan challenge and measured after 1 hr by Randall-Selitto test (reference value: 246.55 +/- 1.05 g); format: functional
[38] = test system: Rattus norvegicus; test: Antiinflammatory activity in Sprague-Dawley rat model of carrageenan-induced thermal hyperalgesia assessed as paw withdrawal latency pressure at 50 mg/kg, po administered 1 hr prior to carrageenan challenge and measured after 3 hrs by Randall-Selitto test (reference value: 176.84 +/- 8.1 g); format: functional
[39] = test system: Rattus norvegicus; test: Antiinflammatory activity in Sprague-Dawley rat model of carrageenan-induced thermal hyperalgesia assessed as paw withdrawal latency time at 50 mg/kg, po administered 1 hr prior to carrageenan challenge and measured after 1 hr by planter test (reference value: 8.88 +/- 0.52 sec); format: functional

CSc1ccc(NC2=CC(=O)CCC2)cc1
inhibition [1]: 12.8%
inhibition [2]: 27.8%

O=C1C=C(Nc2ccc(Cl)cc2)CCC1
IC50 [3]: 71.2 µM
Time [4]: 7.09 s
Activity [5]: 1.22 mL
Time [6]: 8.83 s
Time [7]: 7.72 s
Activity [8]: 78.2%
Activity [9]: 46.7%
Ratio IC50 [10]: 74.1
Activity [11]: 12.7%
inhibition [1]: 12.9%
Time [12]: 7.24 s
Activity [13]: 1.23 mL
Time [14]: 8.2 s
Time [15]: 7.16 s
Activity [16]: 1.29 mL
Activity [17]: 24%
Activity [18]: 1.24 mL
Time [19]: 5.48 s
Activity [20]: 1.23 mL
Activity [21]: 1.19 mL
Activity [22]: 33.7%
inhibition [2]: 88.6%
Activity [23]: 61.3%
Time [24]: 5.34 s

COc1ccc2c(c1)c(CC(=O)O)c(C)n2C(=O)c1ccc(Cl)cc1 [INDOMETHACIN]
Activity [25]: Toxic

O=C1C=C(Nc2ccc(F)cc2)CC1
inhibition [1]: 43.5%
inhibition [2]: 22.2%

O=C1C=C(Nc2ccccc2)CCC1
inhibition [1]: 19.7%
inhibition [2]: 41.9%

O=C1C=C(Nc2ccc(Cl)cc2)CC1
inhibition [1]: 23.7%
inhibition [2]: 33.5%

O=C1C=C(Nc2ccc(F)cc2)CCC1
inhibition [1]: 14.3%
inhibition [2]: 55.6%

O=C1C=C(Nc2ccc([N+](=O)[O-])cc2)CCC1
inhibition [1]: 31%
inhibition [2]: 24.2%

CC1(C)CC(=O)C=C(NCc2ccco2)C1
inhibition [1]: 28.6%
inhibition [2]: 43.9%

CC(=O)c1ccc(NC2=CC(=O)CCC2)cc1
inhibition [1]: 65.5%
inhibition [2]: 41.9%

CC(C)(C)OC(=O)N(C1=CC(=O)CCC1)c1ccc(Cl)cc1
IC50 [3]: 42.6 µM
Time [4]: 6.29 s
Activity [5]: 1.28 mL
Time [6]: 9.98 s
Time [7]: 6.87 s
Activity [8]: 89.1%
Activity [9]: 63%
Ratio IC50 [10]: 19.4
Activity [11]: 23.1%
inhibition [1]: 30.5%
Time [12]: 7.95 s
Activity [13]: 1.18 mL
Time [14]: 7.85 s
Time [15]: 7.99 s
Activity [16]: 1.3 mL
Activity [17]: 36.5%
Activity [18]: 1.24 mL
Time [19]: 6.53 s
Activity [20]: 1.24 mL
Activity [21]: 1.19 mL
Activity [22]: 49.6%
inhibition [2]: 73.5%
Activity [23]: 77.2%
Time [24]: 5.59 s

O=C1C=C(NN2CCCCC2)CCC1
inhibition [1]: 11.3%
inhibition [2]: 43.2%

O=C1C=C(NCc2ccccc2)CCC1
inhibition [1]: 24.2%
inhibition [2]: 40.5%

O=C1C=C(Nc2nc3ccccc3s2)CCC1
inhibition [1]: 5.14%
inhibition [2]: 34%

O=C1C=C(N2CCCC2)CCC1
inhibition [1]: 12.5%
inhibition [2]: 45.6%

O=C1C=C(NCc2ccco2)CCC1
inhibition [1]: 27.2%
inhibition [2]: 48.4%

O=C1O[C@H]([C@@H](O)CO)C(O)=C1O [ASCORBIC ACID]
IC50 [3]: < 20 µM
Activity [9]: 91.1%
Activity [11]: 27.1%
Activity [17]: 50.8%
Activity [22]: 74.7%
Activity [23]: 100%

Cc1ccc(NC2=CC(=O)CCC2)cc1
inhibition [1]: 11.2%
inhibition [2]: 34.2%

CC1(C)CC(=O)C=C(Nc2ccc(Cl)cc2)C1
inhibition [1]: 16.4%
inhibition [2]: 42.6%

N#Cc1ccc(NC2=CC(=O)CCC2)cc1
inhibition [1]: 46.5%
inhibition [2]: 47.1%

O=C1C=C(Nc2cc(Cl)ccc2F)CCC1
inhibition [1]: 32%
inhibition [2]: 47.4%

Cc1ccc(-c2cc(C(F)(F)F)nn2-c2ccc(S(N)(=O)=O)cc2)cc1 [CELECOXIB]
Time [4]: 8.93 s
Activity [5]: 1.38 mL
Time [6]: 12.08 s
Time [7]: 8.93 s
Activity [26]: 269.55 g
Time [27]: 9.22 s
Activity [28]: 273.46 g
Activity [29]: 176.87 g
Activity [30]: 176.45 g
Time [12]: 9.92 s
Activity [13]: 1.36 mL
Time [31]: 10.98 s
Time [32]: 9.48 s
Time [33]: 8.36 s
Time [14]: 10.87 s
Time [15]: 10.98 s
Activity [34]: 176.63 g
Activity [35]: 176.87 g
Activity [36]: 180.82 g
Activity [37]: 270.89 g
Activity [38]: 270.66 g
Activity [16]: 1.3 mL
Activity [18]: 1.23 mL
Time [19]: 6.34 s
Activity [20]: 1.34 mL
Time [39]: 11.54 s
Activity [21]: 1.16 mL
Time [24]: 5.75 s

COc1ccc(NC2=CC(=O)CCC2)cc1
inhibition [1]: 10.7%
inhibition [2]: 36.6%

CC1(C)CC(=O)C=C(Nc2ccc(F)cc2)C1
inhibition [1]: 34%
inhibition [2]: 44.5%

O=C1C=C(NCc2ccco2)CC1
inhibition [1]: 30.5%
inhibition [2]: 41.4%
